The source of these data is paper PMC12264551 (Molecular Pharmacology, 2025).

One assay has as its target T1, PAC1R (Homo sapiens, UniProt P41586).
T1 construct: host or cells: COS-7
T1 sequence (P41586 21-468): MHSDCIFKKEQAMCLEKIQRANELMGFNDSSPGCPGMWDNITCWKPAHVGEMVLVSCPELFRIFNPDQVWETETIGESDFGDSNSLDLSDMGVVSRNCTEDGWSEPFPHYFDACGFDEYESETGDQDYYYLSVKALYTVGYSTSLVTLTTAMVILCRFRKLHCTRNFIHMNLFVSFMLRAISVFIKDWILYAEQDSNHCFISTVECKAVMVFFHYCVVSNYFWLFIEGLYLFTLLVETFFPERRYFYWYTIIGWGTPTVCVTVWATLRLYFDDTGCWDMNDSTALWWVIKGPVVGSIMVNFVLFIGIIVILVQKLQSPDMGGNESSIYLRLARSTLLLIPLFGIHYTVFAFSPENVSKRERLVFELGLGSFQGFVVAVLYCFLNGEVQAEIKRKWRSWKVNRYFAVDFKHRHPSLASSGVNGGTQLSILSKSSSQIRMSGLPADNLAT
In words: Live cell cAMP accumulation (GloSensor), COS-7 cells transfected with PAC1R. In kind it is cell-based. The note with it: ATP […] + PACAP 0.1 nM.

Assay [1] addresses T2, CRLR + RAMP2 (adrenomedullin 1 receptor) (Homo sapiens, UniProt O60895+Q16602).
T2 construct: RAMP plasmid gift of Dr Patrick Sexton; host or cells: COS-7
The assay is described as follows: Live cell cAMP accumulation (GloSensor), COS-7 cells transfected with CRLR + RAMP2. The format is cell-based. The note with it: ATP […] + CGRP 10 nM, RAMP2, COS-7.

For assay [2], the target named is T3, CRLR + RAMP1 (CGRP receptor) (Homo sapiens, UniProt O60894+Q16602).
T3 construct: RAMP plasmid gift of Dr Patrick Sexton; host or cells: COS-7
T3 sequence (Q16602 23-461): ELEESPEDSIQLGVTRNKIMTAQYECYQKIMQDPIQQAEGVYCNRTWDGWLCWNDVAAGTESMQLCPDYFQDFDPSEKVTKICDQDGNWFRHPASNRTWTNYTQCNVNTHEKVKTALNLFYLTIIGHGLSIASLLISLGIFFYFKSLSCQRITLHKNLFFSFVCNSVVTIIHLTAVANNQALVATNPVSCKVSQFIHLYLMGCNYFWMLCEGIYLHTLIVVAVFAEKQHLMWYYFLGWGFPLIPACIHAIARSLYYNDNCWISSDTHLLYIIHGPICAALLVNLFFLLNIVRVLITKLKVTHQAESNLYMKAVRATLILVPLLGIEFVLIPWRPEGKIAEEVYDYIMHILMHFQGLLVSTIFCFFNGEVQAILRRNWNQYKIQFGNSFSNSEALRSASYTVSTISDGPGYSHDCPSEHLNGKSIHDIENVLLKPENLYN
T3 sequence (O60894 27-148): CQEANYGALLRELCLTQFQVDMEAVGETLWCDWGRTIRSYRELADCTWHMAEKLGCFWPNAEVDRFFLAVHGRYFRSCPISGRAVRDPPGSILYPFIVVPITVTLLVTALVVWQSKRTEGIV
The assay is described as follows: Live cell cAMP accumulation (GloSensor), COS-7 cells transfected with CRLR + RAMP1. In kind it is cell-based. The note with it: RAMP1, COS-7.

Assay [3] deals with T4, calcitonin receptor (Homo sapiens, UniProt P30988).
T4 sequence (P30988 25-474): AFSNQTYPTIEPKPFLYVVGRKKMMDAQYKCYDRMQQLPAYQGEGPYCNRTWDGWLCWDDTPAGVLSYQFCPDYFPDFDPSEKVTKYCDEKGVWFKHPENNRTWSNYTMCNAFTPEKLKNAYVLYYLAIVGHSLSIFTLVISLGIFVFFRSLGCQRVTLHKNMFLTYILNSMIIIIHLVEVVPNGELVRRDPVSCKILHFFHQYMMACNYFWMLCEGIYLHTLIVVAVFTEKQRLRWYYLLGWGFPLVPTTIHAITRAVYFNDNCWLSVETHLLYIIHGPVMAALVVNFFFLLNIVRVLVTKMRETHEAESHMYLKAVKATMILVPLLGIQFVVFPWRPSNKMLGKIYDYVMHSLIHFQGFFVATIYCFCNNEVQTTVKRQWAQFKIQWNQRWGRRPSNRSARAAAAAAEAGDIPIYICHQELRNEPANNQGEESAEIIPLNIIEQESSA
In words: Live cell cAMP accumulation (GloSensor), UMR-106 cells transfected with calcitonin receptor. In kind it is cell-based. The arrangement: host or cells: UMR-106 (rat osteoblast-like) in A1; COS-7 (African monkey kidney) in A3. The note with it: ATP […] + calcitonin 1 nM.

For assay [4], the target named is T5, VPAC1R (Homo sapiens, UniProt P32241).
T5 sequence (P32241 31-457): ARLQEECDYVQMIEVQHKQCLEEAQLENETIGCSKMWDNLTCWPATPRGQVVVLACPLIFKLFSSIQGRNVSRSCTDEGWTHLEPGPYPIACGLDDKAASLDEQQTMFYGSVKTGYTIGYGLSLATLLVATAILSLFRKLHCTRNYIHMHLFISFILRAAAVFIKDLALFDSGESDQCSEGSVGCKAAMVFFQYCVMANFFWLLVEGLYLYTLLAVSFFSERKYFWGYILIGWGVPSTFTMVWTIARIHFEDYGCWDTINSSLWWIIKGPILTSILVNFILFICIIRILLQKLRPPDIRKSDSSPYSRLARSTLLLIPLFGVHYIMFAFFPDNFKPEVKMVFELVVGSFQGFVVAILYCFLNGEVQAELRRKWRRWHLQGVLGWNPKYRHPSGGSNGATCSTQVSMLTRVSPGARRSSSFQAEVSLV
In words: Live cell cAMP accumulation (GloSensor), SaOS-2 cells with endogenous VPAC1R. Further details: SaOS-2 cells endogenously express VPAC1R; endogenous in cells; host or cells: SaOS-2. To be noted: ATP […] + VIP 1 nM. The format is cell-based.

The test system of a further assay is PTH1R. The note with it: ref Kim et al, 2018, cited from earlier work. From the text: Extracellular nucleotides are known for their ability to act as purinoceptor agonists ([Burnstock, 2007]).
A further assay has as its target T6, VPAC2R (Homo sapiens, UniProt P41587).
T6 construct: host or cells: COS-7
T6 sequence (P41587 24-438): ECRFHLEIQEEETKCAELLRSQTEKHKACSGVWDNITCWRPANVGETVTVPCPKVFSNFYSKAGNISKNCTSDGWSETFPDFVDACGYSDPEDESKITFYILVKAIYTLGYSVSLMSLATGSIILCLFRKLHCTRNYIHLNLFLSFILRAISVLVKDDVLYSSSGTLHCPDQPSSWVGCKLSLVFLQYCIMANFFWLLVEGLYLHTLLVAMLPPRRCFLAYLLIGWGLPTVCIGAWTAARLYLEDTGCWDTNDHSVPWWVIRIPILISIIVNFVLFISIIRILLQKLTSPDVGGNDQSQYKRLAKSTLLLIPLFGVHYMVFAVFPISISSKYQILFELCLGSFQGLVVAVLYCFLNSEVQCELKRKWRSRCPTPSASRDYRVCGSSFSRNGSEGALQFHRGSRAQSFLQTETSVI
The assay is described as follows: Live cell cAMP accumulation (GloSensor), COS-7 cells transfected with VPAC2R. The format is cell-based.

Assay [5] concerns the target T5, VPAC1R. The assay is described as follows: Live cell cAMP accumulation (GloSensor), COS-7 cells transfected with VPAC1R. In kind it is cell-based. To be noted: ATP […] + VIP 0.1 nM. The arrangement: host or cells: COS-7.
Assay [6] addresses T4, calcitonin receptor. In words: Live cell cAMP accumulation (GloSensor), COS-7 cells transfected with calcitonin receptor. The format is cell-based. To be noted: ATP […] + calcitonin 1 nM. The arrangement: host or cells: COS-7 (African monkey kidney) in A3.
The subject of the next assay is class B GPCRs. In words: Signaling of class B GPCRs tested (summary over receptors). The note with it: CMP in place of ATP. The format is cell-based. The procedure: Cells were treated with IBMX (200–500 μM) and were further incubated for 20 minutes at room temperature. […] The emitted luminescence was measured at room temperature with a 1-second integration time at 1.5-minute intervals for a total of 45 minutes.
Data shown are means ± SEM.
To assess the time-to-maximum-slope (ie, “lag time”) for each time-course curve, we determined the time elapsed from the addition of agonist (time 0) to the first data point of the maximum slope. This procedure is illustrated in Supplemental Fig. 1.

T2 sequence (Q16602 23-461): as the sequence (Q16602 23-461) above
T2 sequence (O60895 43-175): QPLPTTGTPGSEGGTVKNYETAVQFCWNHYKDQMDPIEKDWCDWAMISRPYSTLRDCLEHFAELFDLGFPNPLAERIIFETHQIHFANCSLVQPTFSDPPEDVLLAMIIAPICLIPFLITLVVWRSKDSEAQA

As to `Nc1ncnc2c1ncn2[C@@H]1O[C@H](COP(=O)(O)OP(=O)(O)OP(=O)(O)O)[C@@H](O)[C@H]1O` [ATP, Adenosine 5'-triphosphate], the “effect on PACAP-induced cAMP accumulation” value on PAC1R is “markedly enhanced”. The “effect on CGRP-induced cAMP accumulation” value in assay [1] and in [2] (ATP […] + CGRP 10 nM) was “markedly enhanced” each time. Moreover, the “Hill coefficient / slope factor” value in [2] (ATP + CGRP 10 nM, 4-parameter fit, n = 3) was 3.2. Also, the EC50 in assay [2] (EC50 of ATP for potentiation of CGRP signaling, ATP + CGRP 10 nM, 4-parameter fit, n = 3) is 500 µM. Moreover, the “effect on calcitonin-induced cAMP accumulation” value on calcitonin receptor [3] is recorded as “markedly enhanced”. Besides, the entries for the “effect on VIP-induced cAMP accumulation” value at VPAC1R [4], at VPAC2R (ATP […] + VIP 0.1 nM) and on VPAC1R [5] were “enhanced VIP-induced cAMP accumulation”, “markedly enhanced” and “markedly enhanced”, respectively. In addition, in the assay on PTH1R (extracellular ATP alone), the “effect on PTH1R signaling in absence of added agonist” value was “no effect on PTH1R signaling in the absence of added agonist”. Besides, the “effect on agonist-induced cAMP elevation and β-arrestin recruitment” value in the assay with PTH1R (extracellular ATP with PTH1R agonist) is reported as “strongly enhance”. The “effect on rate of calcitonin-induced cAMP accumulation” value at calcitonin receptor [6] was “markedly enhanced”.

Consider `Nc1ccn([C@@H]2O[C@H](COP(=O)(O)O)[C@@H](O)[C@H]2O)c(=O)n1` [CMP, cytidine 5'-monophosphate], for which the “enhancing effect of ATP” value with class B GPCRs was “mimicked”.

Regarding `CC[C@H](C)[C@H](NC(=O)[C@H](CO)NC(=O)[C@H](CC(N)=O)NC(=O)[C@H](CC(C)C)NC(=O)[C@H](Cc1ccc(O)cc1)NC(=O)[C@H](CCCCN)NC(=O)[C@H](CCCCN)NC(=O)[C@@H](NC(=O)[C@H](C)NC(=O)[C@H](CCSC)NC(=O)[C@H](CCC(N)=O)NC(=O)[C@H](CCCCN)NC(=O)[C@H](CCCNC(=N)N)NC(=O)[C@H](CC(C)C)NC(=O)[C@H](CCCNC(=N)N)NC(=O)[C@@H](NC(=O)[C@H](Cc1ccc(O)cc1)NC(=O)[C@H](CC(N)=O)NC(=O)[C@H](CC(=O)O)NC(=O)[C@@H](NC(=O)[C@H](Cc1ccccc1)NC(=O)[C@@H](NC(=O)[C@H](C)NC(=O)[C@H](CC(=O)O)NC(=O)[C@H](CO)NC(=O)[C@@H](N)Cc1c[nH]cn1)C(C)C)[C@@H](C)O)[C@@H](C)O)C(C)C)C(=O)N[C@@H](CC(C)C)C(=O)N[C@@H](CC(N)=O)C(N)=O` [VIP, vasoactive intestinal peptide], the “Normalized Maximum” value at VPAC2R (VIP + vehicle, Fig. 6H, VPAC2R, fraction of greatest slope, ± SEM, n = 3-5) is 0.94 ± 0.01.
